Key:
Assay type in all cases: cell-based
[1] = test system: protein expression of cyclin D1, c-myc, ABC, total β-catenin; assay: Western blot analysis in SW480 cells; conditions: SW480, 24 h, FIG. 3
Description: Protein expression levels of cyclin D1, c-myc, the active form of β-catenin (ABC), and total β-catenin in SW480 cells were examined by Western blot analysis (FIG. 3). […] Western blotting. SW480 cells at 1×10^6 cells/[…] were treated with different concentrations of 4 for 24 h. Cells were lysed in buffer containing 50 mM Tris (pH 7.4), 150 mM NaCl, 1% Nonidet P-40, 0.5% sodium deoxycholate, 0.1% SDS, and protease inhibitors. After centrifugation at 12,000 rpm for 20 min at 4° C., the supernatant was loaded onto an 8% SDS polyacrylamide gel for electrophoretic analysis. Separated proteins were transferred onto nitrocellulose membranes for immunoblot analysis. The antibodies against total β-catenin (610153, BD Biosciences, most of which is phosphorylated β-catenin and represents the E-cadherin bound pool), the active form of β-catenin (ABC, 05-665, EMD Millipore, dephosphorylated at positions S37 and T41 of β-catenin), cyclin D1 (sc-853, Santa Cruz Biotechnology, Inc.), c-myc (D84C12, Cell Signaling), and β-tubulin (sc-55529, Santa Cruz Biotechnology, Inc) were incubated with the membranes overnight at 4° C. respectively. IRDye 680LT goat anti-mouse IgG (827-11080, LiCOR) or IRDye 800CW goat anti-rabbit IgG (827-08365, LiCOR) was used as the secondary antibody. The images were detected by the Odyssey Infrared Imaging System (LiCOR). Experiments were performed in duplicate.

[2] = test system: TOPFlash (three wild-type Tcf binding sites) luciferase reporter; assay: Wnt-responsive TOPFlash luciferase reporter assay, β-catenin-activated HEK239; conditions: 24 h treatment, read-out: TOPFlash IC50 ± SD β-catenin-activated HEK239
Description: The TOPFlash luciferase reporter assay (in which the luciferase reporter has three wild-type Tcf4 binding sites) was performed with 4 and 5. Cell transfection and luciferase assay. FuGENE6 (E269A, Promega) 96 well plate format was used for the transfection of HEK293 and SW480 cells according to the manufacturer's instruction. HEK293 cells were co-transfected with 45 ng of TOPFlash or FOPFlash reporter gene, 135 ng pcDNA3.1-β-catenin, and 20 ng of pCMV-RL normalization reporter gene. SW480 cells were co-transfected with 60 ng of the TOPFlash or FOPFlash reporter gene and 40 ng of pCMV-RL normalization reporter. Cells were cultured in DMEM and 10% FBS at 37° C. for 24 h, and different concentrations of inhibitors or DMSO was added. After 24 h, the luciferase reporter activity was measured using the Dual-Glo system (E2940, Promega). Normalized luciferase activity in response to the treatment with 4 and 5 was compared with that obtained from the cells treated with DMSO. Experiments were performed in triplicate.

SW480 = assay: MTs growth inhibition assay, SW480; conditions: Homo sapiens, Wnt/β-catenin-hyperactive, 72 h, read-out: MTs IC50 ± SD SW480
Description: (§1) MTs cancer cell growth inhibition assays were conducted for 4 and 5. Three cancer cell lines with hyperactive Wnt/β-catenin signaling, SW480, HCT116, and MDA-MB-231. MTs cell viability assay. Colorectal cancer cell lines, SW480 and HCT116, and triple-negative breast cancer cell line MDA-MB-231 were seeded in 96-well plates at 4×10^3 cells/well, maintained overnight at 37° C., and incubated in the presence of 4 and 5 at various concentrations. Cell viability was monitored after 72 h using a freshly prepared mixture of 1 part phenazine methosulfate (PMS, Sigma) solution (0.92 mg/mL) and 19 parts 3-(4,5-dimethylthiazol-2-yl)-5-(3-carboxymethoxyphenyl)-2-(4-sulfophenyl)-2H-tetrazolium (MTs, Promega) solution (2 mg/mL). Cells were incubated in 10 μL of this solution at 37° C. for 3 h, and A490 was measured. The effect of each compound is expressed as the concentration required to reduce A490 by 50% (IC50) relative to vehicle-treated cells. Experiments were performed in triplicate.

MDA-MB-231 = assay: MTs growth inhibition assay, MDA-MB-231; conditions: Homo sapiens, Wnt/β-catenin-hyperactive, 72 h, read-out: MTs IC50 ± SD MDA-MB-231
Description: as §1

A549 = assay: MTs growth inhibition assay, A549 (Wnt-latent); conditions: Homo sapiens, read-out: MTs IC50 ± SD A549

In the case of `Cl.Cl.O=C(Nc1ccc(O[C@@H]2CCNC2)c(-c2cccc(-c3nn[nH]n3)c2)c1)c1ccc(O[C@H]2CCNC2)c(-c2ccc(F)c(F)c2)c1` [Compound 4, 3′,4′-difluoro-6-(((S)-pyrrolidin-3-yl)oxy)-N-(6-(((R)-pyrrolidin-3-yl)oxy)-3′-(2H-tetrazol-5-yl)-[1,1′-biphenyl]-3-yl)-[1,1′-biphenyl]-3-carboxamide dihydrochloride], the “E-cadherin-bound β-catenin (total β-catenin)” value [1] is reported as “had no effect”, the “activated β-catenin (ABC) in the cell nucleus” value [1] is reported as “reduced” and the “protein expression level of c-myc” value [1] is reported as “significantly reduced”. For the same molecule, the “protein expression level of cyclin D1” value [1] was “significantly reduced”, the IC50 [2] was 25 ± 4.1 µM and the IC50 (SW480) was 41 ± 6.2 µM. For the same molecule, the IC50 (MDA-MB-231) was 73 ± 8.9 µM and the IC50 (A549) was greater than 400 µM.

Reference: patent US20220411414A1, “INHIBITORS FOR THE B-CATENIN/B-CELL LYMPHOMA 9 (BCL9) PROTEIN-PROTEIN INTERACTION” (H. LEE MOFFITT CANCER CENTER AND RESEARCH INSTITUTE, INC., priority 2018, published 2022)
